In patent publication US20240116926A1, “HETEROAROMATIC COMPOUNDS” (AstraZeneca AB, priority 2022, published 2024):
In brackets after ≈: the same amount, converted by molar mass.

What was measured:
[1] = test system: MCF7-Tead cell line; assay: TEAD reporter assay; assay type: cell-based; details: MCF7-Tead cells, luciferase activity after 24 hours
Procedure: (§1) MCF7-Tead cell line was obtained from BPS BIOSCIENCE (catalog number 60618) and was maintained in DMEM containing 10% fetal calf serum, 2 mM glutamine, and 400 μg/ml G418. Cells were grown in a humidified incubator at 37° C. with 5% CO2. Cells were distributed to flat bottom white polystyrene TC treated 384 well plates at a density of 3,500 cells/well in 30 uL. Cells were incubated for 24 hours at 37° C. with 5% CO2. Cells were acoustically dosed using an Echo 555, with compounds serially diluted in 100% DMSO. Plates were incubated for an additional 24 hours. Cells were examined for luciferase activity through the addition of 30 μL Bright-Glo luciferase (Promega catalog number E2620). Plates were incubated for 10 minutes at room temperature and luminescence was read using Tecan plate reader. The data obtained with each compound was exported to […] software to perform curve fitting analysis.

[2] = test system: MCF7-Luciferase cell line; assay: Control reporter (MCF7-Luciferase); assay type: cell-based; details: MCF7-Luciferase cells, luciferase activity after 24 hours
Procedure: (iii) Control Reporter (MCF7-Luciferase)
as §1, with “MCF7-Luciferase” for “MCF7-Tead”, “BPS BIOSCIENCE” left out, “SC050-L)” for “60618)”, “glutamine.” for “glutamine, and 400 μg/ml G418.”, “μL.” for “uL.”

[3] = target: TEAD4(217-434) (Homo sapiens (Human), UniProt Q15561); assay: TEAD4 FRET; assay type: binding; details: depalmitoylated, biotinylated TEAD4(217-434), FAM labelled Probe A, 120 min at 25° C.
TEAD4(217-434), sequence (Q15561 217-434): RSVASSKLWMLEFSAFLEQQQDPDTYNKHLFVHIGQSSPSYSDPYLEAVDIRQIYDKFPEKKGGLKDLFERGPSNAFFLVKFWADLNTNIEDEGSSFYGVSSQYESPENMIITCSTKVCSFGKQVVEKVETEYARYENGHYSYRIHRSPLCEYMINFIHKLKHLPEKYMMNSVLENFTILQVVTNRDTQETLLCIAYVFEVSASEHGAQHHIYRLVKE
Procedure: Compounds were dosed with a final DMSO concentration of 1% (v/v). Compound IC50 values were assessed following a 10-point, half-log10 dilution schema starting at 100 μM compound concentration. Specifically, human TEAD protein from TEAD4(217-434) was cloned into an overexpression vector, expressed as an N-terminal HIS-TEV-Avi-tagged fusion protein in E coli, and subsequently purified, then protein was chemically depalmitoylated & biotinylated. The assay was performed in 384-well LV plates (384-well black, medium binding, PS, HIBASE, GREINER #784076) and run in the presence and absence of the compound of interest. Each well of 5 μL assay mixture contained 10 mM Tris-HCl (pH 7.5), 100 mM NaCl, 0.05 mM EDTA, 1 mM TECP, 1% DMSO, 0.03% Pluronic acid F127, 20 nM dePal Avi TEAD4 (217-434)-depalmitoylated & biotinylated protein, 0.8 nM Streptavidin Terbium cryptate (CisBio #610SATLB), 625 nM FAM labelled Probe A. Reactions were incubated at 25° C. for 120 min before reading on a PHERASTAR FSX Plate Reader (337 520 490 HTRF module required) (Supplier BMP).
The data file from the PHERAstar FSX contains both the acceptor (520 nm) and donor channels (490 nm) (“Channel A”=acceptor channel (520 nm), “Channel B”=donor channel (490 nm)). The ratio of the donor and acceptor (Channel A/Channel B) is calculated within Genedata Assay Analyzer.
Probe A is 3′,6′-dihydroxy-3-oxo-N-{8-[2-(5-{2-[4-(trifluoromethyl)anilino]phenyl}-2H-tetrazol-2-yl)acetamido]octyl}-3H-spiro[[2]benzofuran-1,9′-xanthene]-5-carboxamide;

[4] = Solubility (thermodynamic, shake-flask); assay type: physicochemical; details: thermodynamic from solid; aqueous phosphate buffer (pH 7.4), 24 hours at 25° C.
Procedure: The thermodynamic solubility of a research compound is measured under standard conditions. It is a shake-flask approach that uses 10 mM DMSO solutions which are supplied from the Compound Managements liquid store and is a high throughput method. The dried compounds are equilibrated in an aqueous phosphate buffer (pH 7.4) for 24 hours at 25° C., the portion with the dissolved compound is then separated from the remains. The solutions are analyzed and quantified using UPLC/MS/MS, QC-samples are incorporated in each assay-run to ensure the quality of the assay.

[5] = Protein binding measurements in human plasma (Hu PPB); assay type: in vitro ADME; details: equilibrium dialysis for 18 hours, fraction unbound
Procedure: The automated equilibrium dialysis assay in human plasma uses the RED (Rapid Equilibrium Dialysis) Device and sample handling. The assay generally runs over two to three days including delivery of results. After dialysis for 18 hours, plasma and buffer samples are prepared for analysis by liquid chromatography and mass spectrometry. Samples are generally tested in singlicates and quantified by LC/MSMS by using a 7-point calibration curve in plasma. The compounds are pooled together in plasma pools up to 10 compounds. Three reference compounds are used in each run, Propranolol, Metoprolol and Warfarin. Warfarin is used as a control in each pool and Propranolol and Metoprolol are placed randomly in each run. An in-house Excel macro is used for preparation of files for the robot and the mass spectrometer and is also used for the calculations of fraction unbound (fu %) in plasma.

Row | SMILES | IC50 [1] [nM] | IC50 [2] [nM] | IC50 [3] [nM] | solubility at 24 h [4] [µM] | Hu PPB (% free) [5] [% free]
1 | C=CC(=O)N1CC[C@@H](c2nc(-c3ccc(C(F)(F)F)cc3)c3ccccc3n2)C1 (racemic) [Comparative Example C, 1-(3-{4-[4-(trifluoromethyl)phenyl]-2-quinazolinyl}-1-pyrrolidinyl)-2-propen-1-one, reference compound] | 260 | 22700 | 55 | 66 (≈ 26.2 µg/mL) | 1.1
2 | C=CC(=O)N[C@H]1CCN(c2nc(-c3ccc(C(F)(F)F)cc3)nc3ccccc23)C1 (racemic) [Comparative Example D, N-(1-{2-[4-(trifluoromethyl)phenyl]-4-quinazolinyl}-3-pyrrolidinyl)acrylamide, reference compound] | 1780 | > 31700 | 2900 | 0.6 (≈ 0.247 µg/mL) | 0.2
3 | C=C(F)C(=O)N1C[C@H](F)[C@H](Nc2nnc(-c3ccc(C(F)(F)F)cc3)c3ncccc23)C1 [Example 5, 2-fluoro-1-((3S,4R)-3-fluoro-4-((8-(4-(trifluoromethyl)phenyl)pyrido[2,3-d]pyridazin-5-yl)amino)pyrrolidin-1-yl)prop-2-en-1-one] | 62 | > 31700 | 27 | 244 (≈ 110 µg/mL) | 7.7
4 | C=C(F)C(=O)N1C[C@H](F)[C@H](Nc2nnc(-c3ccc(C(F)(F)F)cc3)c3cccnc23)C1 [Example 6, 2-fluoro-1-((3S,4R)-3-fluoro-4-((5-(4-(trifluoromethyl)phenyl)pyrido[2,3-d]pyridazin-8-yl)amino)pyrrolidin-1-yl)prop-2-en-1-one] | 297 | 29900 | 78 | 158 (≈ 71 µg/mL) | 6.2
5 | C=CC(=O)N1CC[C@H](Nc2nnc(-c3ccc(C(F)(F)F)cc3)c3ncccc23)C1 [Example 7, (S)-1-(3-((8-(4-(trifluoromethyl)phenyl)pyrido[2,3-d]pyridazin-5-yl)amino)pyrrolidin-1-yl)prop-2-en-1-one] | 81 | 28400 | 33 | 8.6 (≈ 3.56 µg/mL) | 9.0
6 | C=CC(=O)N1CC[C@H](Nc2nnc(-c3ccc(C(F)(F)F)cc3)c3cccnc23)C1 [Example 8, (S)-1-(3-((5-(4-(trifluoromethyl)phenyl)pyrido[2,3-d]pyridazin-8-yl)amino)pyrrolidin-1-yl)prop-2-en-1-one] | 72 | > 31700 | 56 | 32 (≈ 13.2 µg/mL) | 12.0
7 | C=CC(=O)N1CC[C@H](Nc2nnc(-c3ccc(C(F)(F)F)cc3)c3ccccc23)C1 [Example 9, (S)-1-(3-((4-(4-(trifluoromethyl)phenyl)phthalazin-1-yl)amino)pyrrolidin-1-yl)prop-2-en-1-one] | 60 | > 31700 |  | < 0.8 | 4.7
8 | C=CC(=O)N1CC[C@H](Nc2nnc(-c3ccc(C(F)(F)F)cc3)c3cccc(F)c23)C1 [Example 13, (S)-1-(3-((8-fluoro-4-(4-(trifluoromethyl)phenyl)phthalazin-1-yl)amino)pyrrolidin-1-yl)prop-2-en-1-one] | 30 | > 31700 | 41 | 40 (≈ 17.2 µg/mL) | 6.1
9 | C=CC(=O)N1C[C@H](O)[C@H](Nc2nnc(-c3ccc(C(F)(F)F)cc3)c3cccc(F)c23)C1 [Example 14, 1-((3R,4S)-3-((8-fluoro-4-(4-(trifluoromethyl)phenyl)phthalazin-1-yl)amino)-4-hydroxypyrrolidin-1-yl)prop-2-en-1-one] | 26 | 19200 | 49 | 39 (≈ 17.4 µg/mL) | 7.7
10 | C=CC(=O)N1C[C@@H](CO)[C@H](Nc2nnc(-c3ccc(C(F)(F)F)cc3)c3cccc(F)c23)C1 [Example 15, 1-((3S,4R)-3-((8-fluoro-4-(4-(trifluoromethyl)phenyl)phthalazin-1-yl)amino)-4-(hydroxymethyl)pyrrolidin-1-yl)prop-2-en-1-one] | 15 | 30800 | 25 | 135 (≈ 62.2 µg/mL) | 11.0
11 | C=CC(=O)N1CC[C@H](Nc2nnc(-c3ccc(C(F)(F)F)cn3)c3cccnc23)C1 [Example 16, (S)-1-(3-((5-(5-(trifluoromethyl)pyridin-2-yl)pyrido[2,3-d]pyridazin-8-yl)amino)pyrrolidin-1-yl)prop-2-en-1-one] | 354 | > 31700 | 270 | 114 (≈ 47.2 µg/mL) | 25.0
12 | CC#CC(=O)N1CC[C@H](Nc2nnc(-c3ccc(C(F)(F)F)cc3)c3ccccc23)C1 [Example 20, (S)-1-(3-((4-(4-(trifluoromethyl)phenyl)phthalazin-1-yl)amino)pyrrolidin-1-yl)but-2-yn-1-one] | 432 | 22500 |  | 33 (≈ 14 µg/mL) | 2.0
13 | C=CC(=O)N1CC[C@H](Nc2ncc(-c3ccc(C(F)(F)F)cn3)c3ncccc23)C1 [Example 38, (S)-1-(3-((8-(5-(trifluoromethyl)pyridin-2-yl)-1,6-naphthyridin-5-yl)amino)pyrrolidin-1-yl)prop-2-en-1-one] | 34 | > 31700 |  | 191 (≈ 79 µg/mL) | 12.5
14 | C=CC(=O)NC1(CNc2nnc(-c3ccc(C(F)(F)F)cc3)c3ccccc23)CC1 [Example 40, N-(1-(((4-(4-(trifluoromethyl)phenyl)phthalazin-1-yl)amino)methyl)cyclopropyl)acrylamide] | 351 | > 31700 |  | 3 (≈ 1.24 µg/mL) | 1.6
15 | C=CC(=O)N1C[C@H](F)[C@H](Nc2ncc(-c3ccc(C(F)(F)F)cc3)c3nccnc23)C1 [Example 43, 1-((3S,4R)-3-fluoro-4-((8-(4-(trifluoromethyl)phenyl)pyrido[3,4-b]pyrazin-5-yl)amino)pyrrolidin-1-yl)prop-2-en-1-one] | 11 | 13300 | 12 | 16 (≈ 6.9 µg/mL) | 
16 | C=CC(=O)N1C[C@H](F)[C@H](Nc2ncc(-c3ccc(C(F)(F)F)cc3)c3ncccc23)C1 [Example 44, 1-((3S,4R)-3-fluoro-4-((8-(4-(trifluoromethyl)phenyl)-1,6-naphthyridin-5-yl)amino)pyrrolidin-1-yl)prop-2-en-1-one] | 22 | 18000 | 16 | 3 (≈ 1.29 µg/mL) | 
